Measurements: patent US20250388567A1, “SELECTIVE G PROTEIN-COUPLED RECEPTOR KINASE 5 INHIBITORS, COMPOSITIONS, AND METHODS OF USE” (Purdue Research Foundation, priority 2022, published 2025)

Experiments:
[1] = target: human GRK5 (Homo sapiens (Human), UniProt P34947); assay: GRK5 radiometric inhibition assay (tubulin phosphorylation, [γ-32P]-ATP); format: biochemical; settings: 50 nM GRK, 500 nM tubulin, 5 μM ATP
Description: (§1) Reactions were quenched at 8 min by addition of 5 μL of 4×SDS gel loading dye to the 10 μL reactions. […] Gels were dried, exposed to a storage phosphor screen overnight, and scanned using a Personal Molecular Imager (Bio-Rad). […] Outliers were eliminated automatically at a 1% Q value. Experiments were performed at least three times.
(§2) Standard control compounds are run during each assay to assess consistency across time, experimenters, and subtle changes in assay conditions that are sometimes required to keep compounds soluble and dispersed (e.g., through addition of DDM or 3% DMSO).

[2] = target: bovine GRK2 (Bos taurus (Bovine), UniProt P21146); assay: GRK2 radiometric inhibition assay (tubulin phosphorylation, [γ-32P]-ATP); format: biochemical; settings: 50 nM GRK, 500 nM tubulin, 5 μM ATP
Description: as §1, §2

Chain of human GRK5 (P34947 whole entry): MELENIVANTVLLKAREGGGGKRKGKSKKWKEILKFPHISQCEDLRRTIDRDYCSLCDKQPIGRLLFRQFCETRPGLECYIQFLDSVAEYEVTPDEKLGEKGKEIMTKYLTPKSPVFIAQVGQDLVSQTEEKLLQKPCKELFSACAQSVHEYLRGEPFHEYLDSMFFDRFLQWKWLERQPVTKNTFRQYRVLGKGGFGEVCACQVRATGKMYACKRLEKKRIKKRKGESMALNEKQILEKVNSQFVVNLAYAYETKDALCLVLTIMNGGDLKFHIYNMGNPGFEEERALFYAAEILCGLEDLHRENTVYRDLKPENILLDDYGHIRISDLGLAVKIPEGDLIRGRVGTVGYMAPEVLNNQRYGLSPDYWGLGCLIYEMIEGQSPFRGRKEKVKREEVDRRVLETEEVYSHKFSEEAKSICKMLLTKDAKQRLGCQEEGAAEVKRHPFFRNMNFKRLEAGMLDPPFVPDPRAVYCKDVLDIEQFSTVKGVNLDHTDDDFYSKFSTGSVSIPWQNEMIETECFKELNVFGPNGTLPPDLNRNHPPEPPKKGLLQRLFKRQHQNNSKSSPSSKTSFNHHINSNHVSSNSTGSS
Chain of bovine GRK2 (P21146 whole entry): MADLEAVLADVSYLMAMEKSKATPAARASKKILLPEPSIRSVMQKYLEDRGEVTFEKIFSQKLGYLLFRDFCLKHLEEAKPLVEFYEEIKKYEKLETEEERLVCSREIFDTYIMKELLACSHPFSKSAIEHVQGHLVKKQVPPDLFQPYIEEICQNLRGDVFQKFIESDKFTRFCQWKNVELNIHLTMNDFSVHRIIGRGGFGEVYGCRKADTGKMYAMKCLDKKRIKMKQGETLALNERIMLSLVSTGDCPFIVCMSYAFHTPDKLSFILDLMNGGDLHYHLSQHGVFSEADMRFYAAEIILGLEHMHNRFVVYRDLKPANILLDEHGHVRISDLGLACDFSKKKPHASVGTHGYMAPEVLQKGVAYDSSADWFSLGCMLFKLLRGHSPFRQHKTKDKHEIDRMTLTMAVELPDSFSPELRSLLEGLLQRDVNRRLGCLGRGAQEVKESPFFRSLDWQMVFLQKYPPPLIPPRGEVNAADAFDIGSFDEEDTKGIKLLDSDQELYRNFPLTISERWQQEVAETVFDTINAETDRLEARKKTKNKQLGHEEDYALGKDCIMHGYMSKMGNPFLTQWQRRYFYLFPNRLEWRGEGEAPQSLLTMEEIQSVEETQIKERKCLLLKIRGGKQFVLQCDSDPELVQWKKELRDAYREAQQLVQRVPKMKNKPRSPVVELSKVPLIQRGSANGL

| SMILES | IC50 [1] [nM] | IC50 [2] [nM] |
| --- | --- | --- |
| Cc1[nH]c(/C=C2\C(=O)Nc3ccc(C(=O)N[C@H](C)c4ccccc4)cc32)c(C)c1C(=O)NCC1CCCCO1 (stereo partly drawn) [Compound 38] | 1 to 100 | > 10000 |
| COCO[C@@H]1Cc2ccccc2[C@H]1NC(=O)c1c(C)[nH]c(/C=C2\C(=O)Nc3ccc(C(=O)N[C@H](C)c4ccccc4)cc32)c1C [Compound 23] | > 10000 | > 10000 |
| Cc1[nH]c(/C=C2\C(=O)Nc3ccc(C(=O)N[C@H](C)c4ccccc4)cc32)c(C)c1C(=O)NC1CCS(=O)(=O)CC1 [Compound 42] | 101 to 999 | > 10000 |
| Cc1[nH]c(/C=C2\C(=O)Nc3ccc(C(=O)N[C@H](C)c4ccc(F)cc4)cc32)c(C)c1NC(=O)C(O)c1ccccc1 (stereo partly drawn) [Compound 1] |  | > 10000 |
| Cc1[nH]c(CC2C(=O)Nc3ccc(C(=O)N[C@H](C)c4ccc(F)cc4)cc32)c(C)c1NC(=O)[C@H](O)c1ccco1 (stereo partly drawn) [Compound 13] | 101 to 999 | > 10000 |
| Cc1[nH]c(/C=C2\C(=O)Nc3ccc(C(=O)N[C@H](C)c4ccccc4)cc32)c(C)c1C(=O)N[C@H]1C(=O)Cc2ccccc21 [Compound 20] | 101 to 999 | > 10000 |
| Cc1[nH]c(/C=C2\C(=O)Nc3ccc(C(=O)N[C@H](C)c4ccccc4)cc32)c(C)c1C(=O)NC1CCOC1 (mixture of isomers) [Compound 39] | 1 to 100 | 1000 to 10000 |
| Cc1[nH]c(/C=C2\C(=O)Nc3ccc(C(=O)N[C@H](C)c4ccc(F)cc4)cc32)c(C)c1NC(=O)c1ccoc1 [Compound 21] | 1 to 100 |  |
| Cc1[nH]c(/C=C2\C(=O)Nc3ccc(C(=O)N[C@H](C)c4ccccc4)cc32)c(C)c1C(=O)N[C@@H]1c2ccccc2C[C@@H]1O [Compound 5] | 101 to 999 | > 10000 |
| Cc1[nH]c(/C=C2\C(=O)Nc3ccc(C(=O)N[C@H](C)c4ccccc4)cc32)c(C)c1C(=O)NC(C)c1ccco1 (stereo partly drawn) [Compound 31] | 1 to 100 | 1000 to 10000 |
| Cc1[nH]c(/C=C2\C(=O)Nc3ccc(C(=O)N[C@H](C)c4ccccc4)cc32)c(C)c1C(O)C#N (stereo partly drawn) [Compound 18] | 101 to 999 | > 10000 |
| Cc1[nH]c(/C=C2\C(=O)Nc3ccc(C(=O)N[C@H](C)c4ccccc4)cc32)c(C)c1C(=O)NC[C@@H]1CCCO1 [Compound 37] | 1 to 100 | 1000 to 10000 |
| Cc1[nH]c(/C=C2\C(=O)Nc3ccc(C(=O)N[C@H](C)c4ccccc4)cc32)c(C)c1C(=O)NCc1ccco1 [Compound 29] | 1 to 100 | 1000 to 10000 |
| Cc1[nH]c(/C=C2\C(=O)Nc3ccc(C(=O)N[C@H](C)c4ccccc4)cc32)c(C)c1C(=O)NCC(O)C1CCOC1 (stereo partly drawn) [Compound 44] | 1 to 100 | > 10000 |
| Cc1[nH]c(/C=C2\C(=O)Nc3ccc(C(=O)N[C@H](C)c4ccccc4)cc32)c(C)c1C(=O)NCC(O)c1ccoc1 (stereo partly drawn) [Compound 32] | 1 to 100 | 1000 to 10000 |
| Cc1[nH]c(/C=C2\C(=O)Nc3ccc(C(=O)N[C@H](C)c4ccccc4)cc32)c(C)c1C(=O)N[C@H]1c2ccccc2CC[C@H]1O [Compound 25] | 101 to 999 | > 10000 |
| Cc1[nH]c(/C=C2\C(=O)Nc3ccc(C(=O)N[C@@H]4CCc5ccccc54)cc32)c(C)c1NC(=O)C(O)c1ccco1 (stereo partly drawn) [Compound 10] | 101 to 999 | > 10000 |
| Cc1[nH]c(/C=C2\C(=O)Nc3ccc(C(=O)N[C@H](C)c4ccccc4)cc32)c(C)c1C(=O)NCC(O)c1ccco1 (stereo partly drawn) [Compound 27] | 1 to 100 | 1000 to 10000 |
| Cc1[nH]c(/C=C2\C(=O)Nc3ccc(C(=O)N[C@H](C)c4ccccc4)cc32)c(C)c1C(=O)NCC1CCOC1 (mixture of isomers) [Compound 40] | 1 to 100 | 1000 to 10000 |
| Cc1[nH]c(/C=C2\C(=O)Nc3ccc(C(=O)N[C@H](C)c4ccccc4)cc32)c(C)c1C(=O)NCC1CC(=O)c2ccccc2O1 (stereo partly drawn) [Compound 41] | 1 to 100 | > 10000 |

| SMILES | IC50 [1] [nM] | IC50 [2] [nM] |
| --- | --- | --- |
| Cc1[nH]c(/C=C2\C(=O)Nc3ccc(C(=O)N[C@H](C)c4ccccc4)cc32)c(C)c1C(=O)N[C@H]1c2ccccc2C[C@H]1O [Compound 8] | 101 to 999 | > 10000 |
| Cc1[nH]c(/C=C2\C(=O)Nc3ccc(C(=O)N[C@H](C)c4ccccc4)cc32)c(C)c1C(=O)N[C@@H]1c2ccccc2C[C@H]1O [Compound 6] | 101 to 999 | > 10000 |
| COc1cccc2[nH]c(C(O)C(=O)Nc3c(C)[nH]c(/C=C4\C(=O)Nc5ccc(C(=O)N[C@H](C)c6ccc(F)cc6)cc54)c3C)cc12 (stereo partly drawn) [Compound 4] | 101 to 999 | > 10000 |
| Cc1[nH]c(/C=C2\C(=O)Nc3ccc(C(=O)N[C@H](C)c4ccccc4)cc32)c(C)c1C(=O)Nc1nc2ccccc2[nH]1 [Compound 33] | 101 to 999 | 1000 to 10000 |
| Cc1[nH]c(/C=C2\C(=O)Nc3ccc(C(=O)N[C@H](C)c4ccccc4)cc32)c(C)c1C(=O)N[C@H]1CCc2ccccc21 [Compound 17] | > 10000 | > 10000 |
| Cc1[nH]c(/C=C2\C(=O)Nc3ccc(C(=O)N[C@H](C)c4ccccc4)cc32)c(C)c1C(=O)NCC1CCCO1 (stereo partly drawn) [Compound 30] | 1 to 100 | 1000 to 10000 |
| Cc1[nH]c(/C=C2\C(=O)Nc3ccc(C(=O)N[C@H](C)c4ccccc4)cc32)c(C)c1C(=O)N[C@H]1c2ccccc2C[C@@H]1O [Compound 7] | 101 to 999 | > 10000 |
| Cc1[nH]c(/C=C2\C(=O)Nc3ccc(C(=O)N[C@H](C)c4ccccc4)cc32)c(C)c1C(=O)N[C@@H]1CCc2ccccc21 [Compound 16] | 1000 to 10000 | > 10000 |
| Cc1[nH]c(/C=C2\C(=O)Nc3ccc(C(=O)N[C@@H]4CCc5ccccc54)cc32)c(C)c1NC(=O)C(=O)c1ccco1 [Compound 9] | > 10000 | > 10000 |
| Cc1[nH]c(/C=C2\C(=O)Nc3ccc(C(=O)N[C@H](C)c4ccc(F)cc4)cc32)c(C)c1C(=O)NCC1CCCO1 (mixture of isomers) [Compound 35] | 1 to 100 | > 10000 |
| COc1cccc(C(O)C(=O)Nc2c(C)[nH]c(/C=C3\C(=O)Nc4ccc(C(=O)N[C@H](C)c5ccc(F)cc5)cc43)c2C)c1 (stereo partly drawn) [Compound 28] | 101 to 999 | > 10000 |
| Cc1[nH]c(/C=C2\C(=O)Nc3ccc(C(=O)N[C@H]4CCc5ccccc54)cc32)c(C)c1NC(=O)C(=O)c1ccco1 [Compound 11] | 1000 to 10000 | > 10000 |
| Cc1[nH]c(/C=C2\C(=O)Nc3ccc(C(=O)N[C@H](C)c4ccccc4)cc32)c(C)c1C(=O)N[C@@H]1c2ccccc2CC[C@@H]1O [Compound 24] | 101 to 999 | > 10000 |
| Cc1[nH]c(/C=C2\C(=O)Nc3ccc(C(=O)N[C@H](C)c4ccccc4)cc32)c(C)c1C(=O)NC[C@H]1CCCO1 [Compound 36] | 1 to 100 | > 10000 |
| Cc1[nH]c(/C=C2\C(=O)Nc3ccc(C(=O)N[C@H](C)c4ccccc4)cc32)c(C)c1C(=O)N[C@H]1Cc2ccccc2[C@H]1O [Compound 34] | 1 to 100 | 1000 to 10000 |
| Cc1[nH]c(/C=C2\C(=O)Nc3ccc(C(=O)N[C@H](C)c4ccccc4)cc32)c(C)c1C(=O)NC1CCOCC1 [Compound 43] | 1000 to 10000 | > 10000 |
| Cc1[nH]c(/C=C2\C(=O)Nc3ccc(C(=O)N[C@H](C)c4ccccc4)cc32)c(C)c1C(=O)NC1c2ccccc2OCC1O (stereo partly drawn) [Compound 26] | 101 to 999 | > 10000 |
| Cc1[nH]c(/C=C2\C(=O)Nc3ccc(C(=O)N[C@H](C)c4ccc(F)cc4)cc32)c(C)c1NC(=O)C(O)c1ccoc1 (stereo partly drawn) [Compound 22] | 1 to 100 | 1000 to 10000 |
| Cc1[nH]c(/C=C2\C(=O)Nc3ccc(C(=O)N[C@H]4CCc5ccccc54)cc32)c(C)c1NC(=O)C(O)c1ccco1 (stereo partly drawn) [Compound 12] | 1000 to 10000 | > 10000 |
| Cc1[nH]c(/C=C2\C(=O)Nc3ccc(C(=O)N[C@H](C)c4ccc(F)cc4)cc32)c(C)c1C(=O)N[C@@H]1c2ccccc2C[C@H]1O [Compound 19] | 101 to 999 | > 10000 |
